Test results published in patent US20250332173A1, “COMPOUNDS AND METHODS FOR MODULATING NUCLEIC ACID SPLICING” (REMIX THERAPEUTICS INC., priority 2021, published 2025).
Counter-ions that a name gives are not always drawn. Like-named read-outs stand apart in the source and are kept apart here.

Experiments:
[1] = tested on: HTT; test: HiBiT protein abundance assay, HTT HiBiT K562 cell line; format: cell-based, human; conditions: 24 hours, top dose 10 μM
Method in brief: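 K562 knock-in lines with endogenous HiBiT-tagged target, 10,000 cells/well in IMDM + FBS, treated 24 h at 37° C with 10-point 3-fold dilutions (top 10 μM final; DMSO ≤0.25%). Lytic Nano-Glo HiBiT luminescence normalized to untagged K562 baseline and DMSO controls; IC50 = concentration giving 50% abundance via four-parameter fit.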

[2] = tested on: SMN2 mRNA; test: RT-qPCR splicing assay, SMN2 canonical junction (CJ) mRNA; format: cell-based, human; conditions: Homo sapiens; Table 5 panel; canonical junction qPCR; compound concentration having 50% response in CJ decrease; read-out: SMN2 IC50 (decrease in CJ mRNA levels)
Method in brief: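 Cells are plated (A673 allowed 24 h to adhere), dosed with an 11-point 3-fold series topping at 10 uM final, and incubated 24 h at 37 °C. Lysis is followed by cDNA synthesis and qPCR of the CJ transcript, normalized to a housekeeping gene.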

[3] = tested on: K562 (human chronic myelogenous leukemia) cells; test: Cell Titer Glo 2.0 cell viability assay; format: cell-based; conditions: Homo sapiens, K562, 72 h, K562 cells, 72 hours, Cell Titer Glo 2.0; read-out: K562 GI50
[4] = HiBiT K562 cell line, read-out: Effect on protein abundance, HTT (IC50 category)
[5] = HiBiT lytic detection, modified K562 cells, read-out: Effect on protein abundance, HTT (IC50)

SMILES | IC50 [1, 4] [µM] | IC50 [2] [µM] | GI50 [3] [µM] | IC50 [1, 5] [µM]
CCOC(=O)c1cc(-c2ccc3c(=O)n(C4CCNCC4)ccc3c2)nn2cc(C)nc12 [Compound 529, ethyl 2-methyl-6-[1-oxo-2-(4-piperidyl)-6-isoquinolyl]imidazo[1,2-b]pyridazine-8-carboxylate] | 0.1 to 1 | < 0.1 | 1 to 10 | –
Cc1cc(-c2cc(O)c3c(=O)n(C4CCNC5(CC5)C4)ncc3c2)cc2cn(C)nc12 (stereo not drawn) [Compound 561] | 0.1 to 1 | 0.1 to 1 | 1 to 10 | –
COc1cc(-c2ccc3c(=O)n(C4CCNCC4)ccc3c2)nn2cc(C)nc12 [Compound 514, 6-(8-methoxy-2-methyl-imidazo[1,2-b]pyridazin-6-yl)-2-(4-piperidyl) isoquinolin-1-one; hydrochloride] | < 0.1 | < 0.1 | < 0.1 | –
Cc1cc(-c2ccc3c(=O)n(N4CCN(C)CC4)cnc3c2)cc2cn(C)nc12 [Compound 175] | 1 to 10 | 1 to 10 | 1 to 10 | –
Cc1cn2cc(-c3cc(F)c4c(=O)n(C5CC(C)NC(C)C5)ccc4c3)cc(F)c2n1 (stereo not drawn) [Compound 651] | < 0.1 | < 0.1 | < 0.1 | –
Cc1cn2nc(-c3ccc4c(=O)n(C5CCNCC5)ccc4c3)cc(Cc3nnn[nH]3)c2n1 [Compound 536, 6-[2-methyl-8-(1H-tetrazol-5-ylmethyl)imidazo[1,2-b]pyridazin-6-yl]-2-(4-piperidyl) isoquinolin-1-one] | > 10 | 1 to 10 | > 10 | –
CNC(=O)c1cc(-c2ccc3c(=O)n(C4CCNCC4)ccc3c2)nn2cc(C)nc12 [Compound 518, N, 2-dimethyl-6-[1-oxo-2-(4-piperidyl)-6-isoquinolyl]imidazo[1,2-b]pyridazine-8-carboxamide] | 1 to 10 | 0.1 to 1 | 1 to 10 | –
Cc1cn2nc(-c3cc(F)c4c(=O)n(C5CCN(C)CC5)ncc4c3)cc(C)c2n1 [Compound 539] | < 0.1 | < 0.1 | 0.1 to 1 | –
Cc1cn2nc(-c3ccc4c(=O)n(C5CCNCC5)ccc4c3)cc(Cc3nnc[nH]3)c2n1 [Compound 535, 6-[2-methyl-8-(4H-1,2,4-triazol-3-ylmethyl)imidazo[1,2-b]pyridazin-6-yl]-2-(4-piperidyl) isoquinolin-1-one] | 1 to 10 | < 0.1 | 1 to 10 | –
Cc1cn2cc(-c3cc(F)c4c(=O)n(C5CCNC6(CC6)C5)ncc4c3)cc(Cl)c2n1 (stereo not drawn) [Compound 556] | < 0.1 | < 0.1 | 0.1 to 1 | –
Cn1ccc2nn(-c3ccc4c(=O)n(C5CCNCC5)ccc4c3)cc2c1=O [Compound 522, 6-{5-methyl-4-oxopyrazolo[4,3-c]pyridin-2-yl}-2-(piperidin-4-yl)isoquinolin-1-one] | > 10 | 1 to 10 | 1 to 10 | –
Cc1cn2nc(-c3ccc4c(=O)n(C5CCNCC5)ccc4c3)cc(C(N)=O)c2n1 [Compound 523, 2-methyl-6-[1-oxo-2-(4-piperidyl)-6-isoquinolyl]imidazo[1,2-b]pyridazine-8-carboxamide] | 1 to 10 | 0.1 to 1 | 1 to 10 | –
CNC(=O)Cc1cc(-c2ccc3c(=O)n(C4CCNCC4)ccc3c2)nn2cc(C)nc12 [Compound 534, N-methyl-2-[2-methyl-6-[1-oxo-2-(4-piperidyl)-6-isoquinolyl]imidazo[1,2-b]pyridazin-8-yl]acetamide] | 1 to 10 | < 0.1 | 1 to 10 | –
Cc1cn2nc(-c3cc4ccn([C@H]5CCNC5)c(=O)c4cc3O)cc(C)c2n1 [Compound 641, 6-(2,8-dimethylimidazo[1,2-b]pyridazin-6-yl)-7-hydroxy-2-[(3S)-pyrrolidin-3-yl]isoquinolin-1-one] | 0.1 to 1 | < 0.1 | 0.1 to 1 | –
Cc1cn2nc(-c3cc(F)c4c(=O)n(C5CCNCC5)ncc4c3)cc(C)c2n1 [Compound 540] | < 0.1 | < 0.1 | < 0.1 | –
Cc1cn2nc(-c3ccn4c(=O)c(C5CCNCC5)ccc4c3)cc(C)c2n1 [Compound 1181] | – | < 0.1 | < 0.1 | < 0.1
Cc1cn2nc(-c3ccc4c(=O)n(C5CCNCC5)ccc4c3)cc(CCO)c2n1 [Compound 533, 6-[8-(2-hydroxyethyl)-2-methyl-imidazo[1,2-b]pyridazin-6-yl]-2-(4-piperidyl)isoquinolin-1-one] | 0.1 to 1 | < 0.1 | 0.1 to 1 | –
Cc1cn2cc(-c3ccc4c(=O)n(C5CCNCC5)ccc4c3)cc(C#N)c2n1 [Compound 560, 2-methyl-6-[1-oxo-2-(piperidin-4-yl)isoquinolin-6-yl]imidazo[1,2-a]pyridine-8-carbonitrile] | 0.1 to 1 | < 0.1 | 0.1 to 1 | –

SMILES | IC50 [1, 4] [µM] | IC50 [2] [µM] | GI50 [3] [µM] | IC50 [1, 5] [µM]
CNC1CCN(c2ccc3cc(-c4cc(C)c5nc(C)cn5n4)ccn3c2=O)C1 (stereo not drawn) [Compound 1158] | – | < 0.1 | 0.1 to 1 | 0.1 to 1
Cc1cn2nc(-c3ccc4c(=O)n(C5CCNCC5)ccc4c3)cc(CC(=O)O)c2n1 [Compound 531, 2-[2-methyl-6-[1-oxo-2-(4-piperidyl)-6-isoquinolyl]imidazo[1,2-b]pyridazin-8-yl]acetic acid] | < 0.1 | < 0.1 | 0.1 to 1 | –
Cn1ccc2c(cnn2-c2ccc3c(=O)n(C4CCNCC4)ccc3c2)c1=O [Compound 521] | 1 to 10 | 1 to 10 | 1 to 10 | –
Cc1cn2nc(-c3cc(F)c4c(=O)n(C5CCN(CCF)CC5)ncc4c3)cc(C)c2n1 [Compound 538] | < 0.1 | < 0.1 | 0.1 to 1 | –
Cc1cn2nc(-c3cc4ccn([C@@H]5CCNC5)c(=O)c4cc3O)cc(C)c2n1 [Compound 640, 6-(2,8-dimethylimidazo[1,2-b]pyridazin-6-yl)-7-hydroxy-2-[(3R)-pyrrolidin-3-yl]isoquinolin-1-one] | 1 to 10 | < 0.1 | 0.1 to 1 | –
Cc1cn2cc(-c3cc(O)c4c(=O)n(C5CCNC6(CC6)C5)ncc4c3)cc(Cl)c2n1 (stereo not drawn) [Compound 557] | < 0.1 | < 0.1 | 0.1 to 1 | –
Cc1cc(-c2cc(F)c3c(=O)n(C4CCNC5(CC5)C4)ncc3c2)cc2cn(C)nc12 (stereo not drawn) [Compound 554] | < 0.1 | < 0.1 | 0.1 to 1 | –
Cc1cn2cc(-c3cc4ncn(C5CCNCC5)c(=O)c4cc3F)cc(F)c2n1 [Compound 586, 6-fluoro-7-{8-fluoro-2-methylimidazo[1,2-a]pyridin-6-yl}-3-(piperidin-4-yl)quinazolin-4-one] | 0.1 to 1 | < 0.1 | 0.1 to 1 | –
Cn1cc2c(=O)n(-c3ccc4c(=O)n(C5CCNCC5)ccc4c3)ccc2n1 [Compound 530, 6-{2-methyl-4-oxopyrazolo[4,3-c]pyridin-5-yl}-2-(piperidin-4-yl)isoquinolin-1-one] | > 10 | > 10 | > 10 | –
Cc1cn2cc(-c3cc(F)c4c(=O)n([C@H]5CNC[C@H]5C)ccc4c3)cc(F)c2n1 [Compound 652, 8-fluoro-6-(8-fluoro-2-methyl-imidazo[1,2-a]pyridin-6-yl)-2-[(3R,4R)-4-methylpyrrolidin-3-yl]isoquinolin-1-one] | > 10 | 0.1 to 1 | 1 to 10 | –
Cc1cn2nc(-c3cc(F)c4c(=O)n([C@H]5CCN(C)C6(CC6)C5)ncc4c3)cc(C)c2n1 [Compound 638] | < 0.1 | < 0.1 | 0.1 to 1 | –
Cc1cn2nc(-c3ccc4c(=O)n(C5CCNCC5)ccc4c3)cc(-n3ccc(=O)cc3)c2n1 [Compound 551, 6-[2-methyl-8-(4-oxo-1-pyridyl)imidazo[1,2-b]pyridazin-6-yl]-2-(4-piperidyl)isoquinolin-1-one] | 0.1 to 1 | 0.1 to 1 | 0.1 to 1 | –
Cc1cn2nc(-c3cc(F)c4c(=O)n(C5CCNCC5)ncc4c3)cc(Oc3ccccc3)c2n1 [Compound 548, 8-fluoro-6-(2-methyl-8-phenoxy-imidazo[1,2-b]pyridazin-6-yl)-2-(4-piperidyl)phthala-zin-1-one] | < 0.1 | < 0.1 | < 0.1 | –
Cc1cn2cc(-c3cc(O)c4c(=O)n(C5CCNCC5)cnc4c3)cc(F)c2n1 [Compound 587, 7-{8-fluoro-2-methylimidazo[1,2-a]pyridin-6-yl}-5-hydroxy-3-(piperidin-4-yl)quinazolin-4-one] | 0.1 to 1 | < 0.1 | 0.1 to 1 | –
Cc1cc(-c2ccc3c(=O)n(C4CCNC5(CC5)C4)ncc3c2)cc2cn(C)nc12 (stereo not drawn) [Compound 512] | 1 to 10 | 0.1 to 1 | 1 to 10 | –
Cc1cn2nc(-c3ccc4c(=O)n(C5CCNCC5)ccc4c3)cc(Oc3cccnc3)c2n1 [Compound 550, 6-[2-methyl-8-(3-pyridyloxy)imidazo[1,2-b]pyridazin-6-yl]-2-(4-piperidyl)isoquinolin-1-one] | < 0.1 | < 0.1 | < 0.1 | –
Cc1cn2nc(-c3ccc4c(=O)n(C5CCNCC5)ccc4c3)cc(Oc3ccccc3)c2n1 [Compound 519, 6-(2-methyl-8-phenoxy-imidazo[1,2-b]pyridazin-6-yl)-2-(4-piperidyl)isoquinolin-1-one] | < 0.1 | < 0.1 | < 0.1 | –
